In patent US11180500B2, “Derivatives of relebactam and uses thereof” (ARIXA PHARMACEUTICALS, INC., priority 2018, dated 2021):

Assay: Oral bioavailability in Beagle dogs (plasma concentration of relebactam)
Assay type: in vivo
Settings: male Beagle dogs, IV bolus, mean
Protocol: The oral bioavailability of certain relebactam prodrugs provided by the present disclosure in Beagle dogs was evaluated.
Dosing formulations are prepared on the day of dosing. Intravenous formulations are prepared under aseptic conditions, sterile filtered, and brought to room temperature prior to dosing. The intravenous formulation included relebactam at a final concentration of 2.8 mg/mL in PBS at pH 7.5.
The formulations were administered to male Beagle dogs weighing about 10 kg. The animals were maintained in accordance with the Guide for the Care and Use of Laboratory Animals, National Research Council, The National Academies Press, Washington, DC, 2011.
The dogs received either an IV bolus dose of 9.9 mg/kg, or a peroral dose of 22 mg/kg (Compound 87) or 20.0 mg/kg (Compound 88). […]
The plasma concentration of relebactam was measured at intervals following administration. […] The relebactam concentration was determined using LC/MS/MS.
The area under the concentration vs. time curves (AUC) was calculated using the linear/log trapezoidal method with linear interpolation. The percent oral bioavailability (% F) of relebactam was determined by comparing the AUC following oral administration with the AUC following IV administration on a dose normalized basis.

O=C(NC1CCNCC1)[C@@H]1CC[C@@H]2CN1C(=O)N2OS(=O)(=O)O [relebactam]
AUC(0-inf) (dog, nominal dose 10.0 mg/kg (administered 9.88 mg/kg)): 29400 ng·h/mL | AUC0-inf/D (relebactam-equivalent dose 9.88 mg/kg): 2974
